According to US20190194179A1, “ANTIBIOTIC COMPOUNDS” (DISCUVA LTD., priority 2016, published 2019):

Test system: Neisseria gonorrhoeae
Test: EC50 determination: plate-based broth growth assay (absorbance at 600 nm) of Neisseria gonorrhoeae
Assay type: cell-based
Conditions: absorbance 600 nm after 20 hours at 37° C./5% CO2, read-out: IC50 (Inhibitory concentration) against Neisseria gonorrhoeae
Procedure: Actively growing Neisseria gonorrhoeae on GC agar (based on; Spence et. al. (2008): Curr. Protoc. Microbiol. 8:4A.1.1-4A.1.26) plates are harvested and transferred to GC broth (based on; Spence et al (2008): Curr. Protoc. Microbiol. 8:4A.1.1-4A.1.26) to generate a liquid stock. This culture is allowed to establish and grow to mid-log phase (at 37° C./5% CO2), finally this culture is diluted (˜10^5 cells/ml) to generate a seed inoculum to establish plate-based broth assays. EC50 values were determined by assaying growth (absorbance read at 600 nm, after 20 hours at 37° C./5% CO2) of Neisseria gonorrhoeae across a 10-point dilution series of the test compound. The EC50 value is determined from transformed data to identify the concentration of compound giving a 50% response relative to control samples (no compound).

| IC50 [µM] | SMILES |
| --- | --- |
| ≤ 0.1 | Brc1ccc2nc(Nc3nnco3)oc2c1 [Example 179, 6-Bromo-N-(1,3,4-oxadiazol-2-yl)benzo[d]ox-azol-2-amine] |
| ≤ 1 | COc1cc2nc(Nc3nnco3)oc2cc1F [Example 209, 6-Fluoro-5-methoxy-N-(1,3,4-oxadiazol-2-yl)benzo[d]oxa-zol-2-amine] |
| ≤ 100 | O=C1CCCN1c1ccc2nc(Nc3nnco3)oc2c1 [Example 212, 1-(2-((1,3,4-oxadiazol-2-yl)amino)benz-o[d]oxazol-6-yl)pyrrolidin-2-one] |
| ≤ 1 | COC(=O)c1ccc2nc(Nc3nnco3)oc2c1 [Example 178, Methyl 2-((1,3,4-oxadiazol-2-yl)amino)ben-zo[d]oxazole-6-carboxylate] |
| ≤ 10 | Clc1ccc2oc(Nc3cscn3)nc2c1 [Example 173, 5-Chloro-N-(thiazol-4-yl)benzo[d]oxazol-2-amine] |
| ≤ 0.1 | Cc1cc(Cl)cc2oc(Nc3nnco3)nc12 [Example 189, 6-Chloro-4-methyl-N-(1,3,4-oxadiazol-2-yl)benzo[d]ox-azol-2-amine] |
| ≤ 1 | CC(C)c1ccc2nc(Nc3nnco3)oc2c1 [Example 211, 6-Isopropyl-N-(1,3,4-oxadiazol-2-yl)benzo[d]oxa-zol-2-amine] |
| ≤ 1 | Fc1cc(Cl)cc2oc(Nc3nnco3)nc12 [Example 176, 6-Chloro-4-fluoro-N-(1,3,4-oxadiazol-2-yl)benzo[d]ox-azol-2-amine] |
| ≤ 0.1 | Cc1cc2oc(Nc3nnco3)nc2cc1F [Example 197, 5-Fluoro-6-methyl-N-(1,3,4-oxadiazol-2-yl)benzo[d]oxazol-2-amine] |
| ≤ 10 | Oc1ccc2nc(Nc3nnco3)oc2c1 [Example 177, 2-((1,3,4-Oxadiazol-2-yl)amino)ben-zo[d]oxazol-6-ol] |
| ≤ 200 | NC(=O)c1nnc(Nc2nc3cc(F)ccc3o2)o1 [Example 202, 5-((5-Fluorobenzo[d]oxazol-2-yl)amino)-1,3,4-oxadiazole-2-carboxamide] |
| ≤ 1 | c1nnc(Nc2nc3ccc(C4CC4)cc3o2)o1 [Example 180, 6-Cyclopropyl-N-(1,3,4-oxadiazol-2-yl)benzo[d]ox-azol-2-amine] |
| ≤ 10 | O=C(O)c1ccc2nc(Nc3nnco3)oc2c1 [Example 192, 2-((1,3,4-oxadiazol-2-yl)amino)benzo[d]oxazole-6-carboxylic acid] |
| ≤ 10 | c1nnc(Nc2nc3ccc(N4CCOCC4)cc3o2)o1 [Example 185, 6-Morpholino-N-(1,3,4-oxadiazol-2-yl)benzo[d]ox-azol-2-amine] |
| ≤ 100 | NC(=O)c1nnc(Nc2nc3ccc(F)cc3o2)o1 [Example 201, 5-((6-Fluorobenzo[d]oxazol-2-yl)amino)-1,3,4-oxadiazole-2-carboxamide] |
| ≤ 0.1 | Clc1ccc2nc(Nc3nnc(C4CCCO4)o3)oc2c1 (stereo not shown) [Example 213, 6-Chloro-N-(5-(tetrahydrofuran-2-yl)-1,3,4-oxadiazol-2-yl)benzo[d]oxa-zol-2-amine] |

The next lines start with the compound.

| SMILES | IC50 [µM] |
| --- | --- |
| Cc1nnc(Nc2nc3c(Cl)cc(Cl)cc3o2)[nH]1 [Example 123, 4,6-Dichloro-N-(5-methyl-4H-1,2,4-triazol-3-yl)benzo[d]oxazol-2-amine] | ≤ 1 |
| FC(F)(F)c1cc2oc(Nc3nc4ccccc4o3)nc2cn1 [Example 163, N-(Benzo[d]oxazol-2-yl)-6-(trifluoromethyl) oxazolo[4,5-c]pyridin-2-amine] | ≤ 0.1 |
| O=C(NC1CC1)c1cnc(Nc2nc3cc(C(F)(F)F)ccc3o2)s1 [Example 37, N-Cyclopropyl-2-((5-(trifluoromethyl)benzo[d]oxazol-2-yl)amino)thiazole-5-carboxamide] | ≤ 10 |
| CC(C)(C)OC(=O)N1CCN(c2nnc(Nc3nc4cc(C(F)(F)F)ccc4o3)o2)CC1 [Example 148, tert-butyl 4-(5-((5-(trifluoromethyl)benzo[d]oxazol-2-yl)amino)-1,3,4-oxadiazol-2-yl)piperazine-1-carboxylate] | ≤ 100 |
| Clc1ccc2nc(Nc3nnco3)[nH]c2c1 [Example 91, N-(6-Chloro-1H-benzo[d]imidazol-2-yl)-1,3,4-oxadiazol-2-amine] | ≤ 100 |
| NC(=O)c1csc(Nc2nc3cc(C(F)(F)F)ccc3o2)n1 [Example 21, 2-((5-(Trifluoromethyl)benzo[d]oxazol-2-yl)amino)thiazole-4-carboxamide] | ≤ 1 |
| FC(F)(F)c1cc2nc(Nc3nnco3)oc2cc1Cl [Example 138, 6-Chloro-N-(1,3,4-oxadiazol-2-yl)-5-(trifluoromethyl)benzo[d]oxazol-2-amine] | ≤ 0.1 |
| O=C(Nc1cccc(F)c1)c1csc(Nc2nc3cc(C(F)(F)F)ccc3o2)n1 [Example 9, N-(3-Fluorophenyl)-2-((5-(trifluoromethyl)benzo[d]oxazol-2-yl)amino)thiazole-4-carboxamide] | ≤ 1 |
| Cc1nnc(Nc2nc3c(F)cccc3o2)o1 [Example 62, 4-Fluoro-N-(5-methyl-1,3,4-oxadiazol-2-yl)benzo[d]oxazol-2-amine] | ≤ 1 |
| CN1CCc2oc(Nc3nc4cc(C(F)(F)F)ccc4o3)nc2C1 [Example 156, 5-Methyl-N-(5-(trifluoromethyl)benzo[d]oxazol-2-yl)-4,5,6,7-tetrahydrooxazolo[4,5-c]pyridin-2-amine] | ≤ 1 |
| FC(F)(F)c1cc2oc(Nc3nnco3)nc2cc1Cl [Example 149, 5-Chloro-N-(1,3,4-oxadiazol-2-yl)-6-(trifluoromethyl)benzo[d]oxazol-2-amine] | ≤ 0.1 |
| Cc1nnc(Nc2nc3cccc(Cl)c3o2)[nH]1 [Example 121, 7-Chloro-N-(5-methyl-4H-1,2,4-triazol-3-yl)benzo[d]oxazol-2-amine] | ≤ 0.1 |
| NC(=O)c1csc(Nc2nc3cc(C(F)(F)F)c(Cl)cc3o2)n1 [Example 34, 2-((6-Chloro-5-(trifluoromethyl)benzo[d]oxazol-2-yl)amino)thiazole-4-carboxamide] | ≤ 1 |
| FC1(F)CCN(Cc2nnc(Nc3nc4cc(C(F)(F)F)ccc4o3)o2)C1 [Example 74, N-(5-((3,3-diFluoropyrrolidin-1-yl)methyl)-1,3,4-oxadiazol-2-yl)-5-(trifluoromethyl)benzo[d]oxazol-2-amine] | ≤ 1 |
| FC(F)(F)c1ccc2oc(Nc3nc4ccccc4[nH]3)nc2c1 [Example 167, N-(1H-Benzo[d]imidazol-2-yl)-5-(trifluoromethyl) benzo[d]oxazol-2-amine] | ≤ 1 |
| Cc1nccc2oc(Nc3nc4ccccc4o3)nc12 [Example 171, N-(Benzo[d]oxazol-2-yl)-4-methyloxazolo[4,5-c]pyridin-2-amine] | ≤ 1 |
| FC(F)(F)c1cc2oc(Nc3nc4ccccc4[nH]3)nc2cn1 [Example 166, N-(1H-Benzo[d]imidazol-2-yl)-6-(trifluoromethyl) oxazolo[4,5-c]pyridin-2-amine] | ≤ 1 |
| FC(F)(F)c1ccc2nc(Nc3ncc(N4CCCCC4)s3)oc2c1 [Example 28, N-(5-(Piperidin-1-yl)thiazol-2-yl)-6-(trifluoromethyl)benzo[d]oxazol-2-amine] | ≤ 1 |
| Fc1cc2nc(Nc3nnco3)oc2cc1Cl [Example 47, 6-Chloro-5-fluoro-N-(1,3,4-oxadiazol-2-yl)benzo[d]oxazol-2-amine] | ≤ 0.1 |
| Cc1nnc(Nc2nc3ccc(Cl)cc3o2)o1 [Example 109, 6-Chloro-N-(5-methyl-1,3,4-oxadiazol-2-yl)benzo[d]oxazol-2-amine] | ≤ 0.1 |
| Clc1cc(Cl)c2nc(Nc3nnc(CN4CCCC4)[nH]3)oc2c1 [Example 129, 4,6-diChloro-N-(5-(pyrrolidin-1-ylmethyl)-4H-1,2,4-triazol-3-yl)benzo[d]oxazol-2-amine] | ≤ 1 |
| Clc1ccc2nc(Nc3nncs3)oc2c1 [Example 151, 6-Chloro-N-(1,3,4-thiadiazol-2-yl)benzo[d]oxazol-2-amine] | ≤ 1 |
| CCOC(=O)c1nnc(Nc2nc3cc(C(F)(F)F)ccc3o2)o1 [Example 52, Ethyl 5-((5-(trifluoromethyl)benzo[d]oxazol-2-yl)amino)-1,3,4-oxadiazole-2-carboxylate] | ≤ 1 |
| Cc1nnc(Nc2nc3c(Cl)cc(Cl)cc3o2)o1 [Example 40, 4,6-Dichloro-N-(5-methyl-1,3,4-oxadiazol-2-yl)benzo[d]oxazol-2-amine] | ≤ 0.1 |
| O=C(NC1CC1)c1nnc(Nc2nc3ccc(C(F)(F)F)cc3o2)o1 [Example 30, N-Cyclopropyl-5-((6-(trifluoromethyl)benzo[d]oxazol-2-yl)amino)-1,3,4-oxadiazol-2-carboxamide] | ≤ 100 |
| COC(=O)c1ccc2[nH]c(Nc3nnc(C)o3)nc2c1 [Example 84, Methyl 2-((5-methyl-1,3,4-oxadiazol-2-yl)amino)-1H-benzo[d]imidazole-5-carboxylate] | ≤ 10 |
| COC1CCN(Cc2nnc(Nc3nc4cc(C(F)(F)F)ccc4o3)o2)C1 (stereo not shown) [Example 75, N-(5-((3-Methoxypyrrolidin-1-yl)methyl)-1,3,4-oxadiazol-2-yl)-5-(trifluoromethyl)benzo[d]oxazol-2-amine] | ≤ 1 |
| Cc1nnc(Nc2nc3c(F)cccc3o2)[nH]1 [Example 124, 4-Fluoro-N-(5-methyl-4H-1,2,4-triazol-3-yl)benzo[d]oxazol-2-amine] | ≤ 1 |
| CC(C)c1nnc(Nc2nc3cc(C(F)(F)F)c(Cl)cc3o2)[nH]1 [Example 139, 6-Chloro-N-(5-isopropyl-4H-1,2,4-triazol-3-yl)-5-(trifluoromethyl)benzo[d]oxazol-2-amine] | ≤ 1 |
| Cc1nnc(Nc2nc3c(C)nccc3o2)o1 [Example 154, 4-Methyl-N-(5-methyl-1,3,4-oxadiazol-2-yl)oxazolo[4,5-c]pyridin-2-amine] | ≤ 10 |
